# Assay results: patent publication US9995734B2, “Human T cell line assay for evaluating the immunologic identity of glatiramer acetate preparations” (Mylan Inc., priority 2013, dated 2018)
# Several values for one entry are separate records, joined by “and”; a condition that tells them apart may be missing. Identical values can stand only once.
# How the values were obtained:
# Assay type in all cases: cell-based, human
# Donor 1 COP T-Cell Lines = assay: Multiplex bead cytokine assay (FlowCytoMix), Donor 1 COP T-cell lines; details: 222-2D8, 222-1H12, 222-2F12; Day 56; 48 hours; 1, 3, 10 μg/mL
# Procedure: Culture medium was removed from cultures prepared as for proliferation assay and utilized to measure cytokine production. In most cases culture medium was collected 18-24 hours after mixing T-cells, APC, and stimulating antigen. Cytokine production was measured by ELISA or bead assay. For measuring cytokine production, 100-150 μL culture medium (100 μL if culture was to be continued, otherwise 150 μL) was removed from each well. In some cases, the culture was continued 48 hours, for a total of 72 hours of culture, and the proliferative response measured.
# The concentration of multiple cytokines was measured simultaneously using FlowCytoMix™ kits (eBioscience, San Diego Calif.). These are fluorescent bead based assays consisting of beads conjugated to anti cytokine antibodies. Beads specific for each cytokine are distinguished by size and fluorescence at 670 run. Cytokine bound to each bead is detected using a phycoerythrin conjugated antibody so that the fluorescence at 585 nm reflects the concentration of cytokine in the sample. Two kits were utilized which measured different cytokine panels. The TH1/TH2 kit measures IFN-γ, IL-1β, IL-2, IL-4, IL-5, IL-6, IL-8, IL-10, IL-12p70, TNF-α (TNF) and TNF-β (LT). The TH1/TH2/TH9/TH17/TH22 kit measures […], IL-1β, IL-2, IL-4, IL-5, IL-6, IL-9, IL-10, IL-12p70, IL-13, IL-17, IL-22, and TNF-α (TNF). Both kits were used following the manufacturer's instructions.
# IL-12p70, IFN-γ, IL-2, IL-10, IL-8, IL-6, IL-5, IL-4, IL-1β, TNF-α (TNF), and TNF-β (LT) secretion were measured in response to stimulation with 1, 3, or 10 μg/mL GMA, or 1, 3, or 10 μg/mL COP, as well as a no-antigen control and an MBP control, in the presence of autologous EBV-transformed B-LCL.
# Donor 3 COP T-Cell Lines = assay: ATP proliferation assay (CellTiter Glo), Donor 3 COP T-cell lines, incl. reactivity to non-canonical GA peptides; details: for Non-Canonical Peptide Non-Reactivity: proliferation <2 times no antigen control
# Donor 4 COP T-Cell Lines = assay: ATP proliferation assay (CellTiter Glo), Donor 4 COP T-cell lines, incl. reactivity to non-canonical GA peptides; details: for Non-Canonical Peptide Non-Reactivity: proliferation <2 times no antigen control; for Proliferation (luminescent ATP assay), Mean: T-cell line 205-1F4, Day 71, autologous B-LCL; for Reactivity (proliferation), Mean: T-cell line 205-1H3, 0 μg/mL 4121.0
# Donor 3 GMA T-Cell Lines = assay: ATP proliferation assay (CellTiter Glo), Donor 3 GMA T-cell lines, incl. reactivity to non-canonical GA peptides; details: Day 50 of culturing
substance,measurement,setting,value
"L-glutamic acid polymer with L-alanine, L-lysine and L-tyrosine, acetate (salt) [GA]","cytokine secretion, dose comparison",Donor 1 COP T-Cell Lines,highest levels of cytokines
poly (Glu-Ala; 6:4) [GA 64],Non-Canonical Peptide Non-Reactivity,Donor 3 COP T-Cell Lines; 165-C4C,GA64
same,Non-Canonical Peptide Non-Reactivity,Donor 3 COP T-Cell Lines; 165-F3C,GA 64
same,Non-Canonical Peptide Non-Reactivity,Donor 3 COP T-Cell Lines; 165-F6C,GA64
same,Nonreactive T-Cell Line,"Donor 3 COP T-Cell Lines; Donor 3 COP lines, stimulation with the non-canonical GA peptide",165-C4C (Donor 3) and 165-F3C (Donor 3) and 165-F6C (Donor 3)
same,"Proliferation (luminescent ATP assay), Mean","Donor 3 COP T-Cell Lines; T-cell line 165-C4C, 1 μg/mL antigen, Day 66 of culture, 0 μg/mL 1881",2205
same,"Proliferation (luminescent ATP assay), Mean","Donor 3 COP T-Cell Lines; T-cell line 165-C4C, 3 μg/mL antigen, Day 66 of culture, 0 μg/mL 1881",2229
same,"Proliferation (luminescent ATP assay), Mean","Donor 3 COP T-Cell Lines; T-cell line 165-C4C, 10 μg/mL antigen, Day 66 of culture, 0 μg/mL 1881",2244
same,"Proliferation (luminescent ATP assay), Mean","Donor 3 COP T-Cell Lines; T-cell line 165-F3C, 1 μg/mL antigen, Day 77 of culture, 0 μg/mL 1563",1791
same,"Proliferation (luminescent ATP assay), Mean","Donor 3 COP T-Cell Lines; T-cell line 165-F3C, 3 μg/mL antigen, Day 77 of culture, 0 μg/mL 1563",1943
same,"Proliferation (luminescent ATP assay), Mean","Donor 3 COP T-Cell Lines; T-cell line 165-F3C, 10 μg/mL antigen, Day 77 of culture, 0 μg/mL 1563",1870
same,Non-Canonical Peptide Non-Reactivity,Donor 4 COP T-Cell Lines; 205-1F4,GA 64
same,Non-Canonical Peptide Non-Reactivity,Donor 4 COP T-Cell Lines; 205-1H3,GA 64
same,Nonreactive T-Cell Line,"Donor 4 COP T-Cell Lines; Donor 4 COP lines, stimulation with the non-canonical GA peptide",205-1F4 (Donor 4) and 205-1H3 (Donor 4)
same,"Proliferation (luminescent ATP assay), Mean",Donor 4 COP T-Cell Lines; 1 μg/mL antigen,2544
same,"Proliferation (luminescent ATP assay), Mean",Donor 4 COP T-Cell Lines; 3 μg/mL antigen,2261
same,"Proliferation (luminescent ATP assay), Mean",Donor 4 COP T-Cell Lines; 10 μg/mL antigen,2080
same,"Reactivity (proliferation), Mean",Donor 4 COP T-Cell Lines; 1 μg/mL antigen,4012.0
same,"Reactivity (proliferation), Mean",Donor 4 COP T-Cell Lines; 3 μg/mL antigen,4246.0
same,"Reactivity (proliferation), Mean",Donor 4 COP T-Cell Lines; 10 μg/mL antigen,2054.3
EKPKVEAYKAAAAPA [STERN],"Proliferation (luminescent ATP assay), Mean","Donor 3 GMA T-Cell Lines; T-cell line 165-05G, 1 μg/mL antigen, No Antigen Value 2149",1750 RLU
same,"Proliferation (luminescent ATP assay), Mean","Donor 3 GMA T-Cell Lines; T-cell line 165-05G, 3 μg/mL antigen, No Antigen Value 2149",1606 RLU
same,"Proliferation (luminescent ATP assay), Mean","Donor 3 GMA T-Cell Lines; T-cell line 165-05G, 10 μg/mL antigen, No Antigen Value 2149",1650 RLU
same,"Proliferation (luminescent ATP assay), Mean","Donor 3 GMA T-Cell Lines; T-cell line 165-05G, 30 μg/mL antigen, No Antigen Value 2149",1572 RLU
same,"Proliferation (luminescent ATP assay), Mean","Donor 3 GMA T-Cell Lines; T-cell line 165-E9G, 1 μg/mL antigen, No Antigen Value 1742",1673 RLU
same,"Proliferation (luminescent ATP assay), Mean","Donor 3 GMA T-Cell Lines; T-cell line 165-E9G, 3 μg/mL antigen, No Antigen Value 1742",1480 RLU
same,"Proliferation (luminescent ATP assay), Mean","Donor 3 GMA T-Cell Lines; T-cell line 165-E9G, 30 μg/mL antigen, No Antigen Value 1742",1487 RLU
same,"Proliferation (luminescent ATP assay), Mean","Donor 3 GMA T-Cell Lines; T-cell line 165-E9G, 10 μpg/mL antigen, No Antigen Value 1742",1471 RLU
same,"Proliferation (luminescent ATP assay), Mean","Donor 3 GMA T-Cell Lines; T-cell line 165-F10G, 1 μg/mL antigen, No Antigen Value 3752",2465 RLU
same,"Proliferation (luminescent ATP assay), Mean","Donor 3 GMA T-Cell Lines; T-cell line 165-F10G, 3 μg/mL antigen, No Antigen Value 3752",2389 RLU
same,"Proliferation (luminescent ATP assay), Mean","Donor 3 GMA T-Cell Lines; T-cell line 165-F10G, 10 μg/mL antigen, No Antigen Value 3752",2030 RLU
same,"Proliferation (luminescent ATP assay), Mean","Donor 3 GMA T-Cell Lines; T-cell line 165-F10G, 30 μg/mL antigen, No Antigen Value 3752",2583 RLU
same,"Proliferation (luminescent ATP assay), Mean","Donor 3 GMA T-Cell Lines; T-cell line 165-H11G, 1 μg/mL antigen, No Antigen Value 1485",2279 RLU
same,"Proliferation (luminescent ATP assay), Mean","Donor 3 GMA T-Cell Lines; T-cell line 165-H11G, 3 μg/mL antigen, No Antigen Value 1485",2118 RLU
same,"Proliferation (luminescent ATP assay), Mean","Donor 3 GMA T-Cell Lines; T-cell line 165-H11G, 10 μg/mL antigen, No Antigen Value 1485",2418 RLU
same,"Proliferation (luminescent ATP assay), Mean","Donor 3 GMA T-Cell Lines; T-cell line 165-H11G, 30 μg/mL antigen, No Antigen Value 1485",2296 RLU
same,proliferation response to non-canonical peptides,"Donor 3 COP T-Cell Lines; 165-E3C, separate experiment",did not react
